Experimental data published in article PMC7048775, “Single-molecule imaging of PI(4,5)P2 and PTEN in vitro reveals a positive feedback mechanism for PTEN membrane binding” (Communications Biology, 2020).

Legend:
PTEN (PTEN-Halo) [1] = target: T1, PTEN (PTEN-Halo) (Dictyostelium discoideum, UniProt Q8T9S7, R47A); experiment: single-molecule TIRF imaging on supported planar lipid bilayer, dissociation curve; format: binding; conditions: 10 mol% PI(4,5)P2 in DOPC bilayer, pH 8.0, 300 mM NaCl, 21 °C
T1 sequence (Q8T9S7 whole entry R47A): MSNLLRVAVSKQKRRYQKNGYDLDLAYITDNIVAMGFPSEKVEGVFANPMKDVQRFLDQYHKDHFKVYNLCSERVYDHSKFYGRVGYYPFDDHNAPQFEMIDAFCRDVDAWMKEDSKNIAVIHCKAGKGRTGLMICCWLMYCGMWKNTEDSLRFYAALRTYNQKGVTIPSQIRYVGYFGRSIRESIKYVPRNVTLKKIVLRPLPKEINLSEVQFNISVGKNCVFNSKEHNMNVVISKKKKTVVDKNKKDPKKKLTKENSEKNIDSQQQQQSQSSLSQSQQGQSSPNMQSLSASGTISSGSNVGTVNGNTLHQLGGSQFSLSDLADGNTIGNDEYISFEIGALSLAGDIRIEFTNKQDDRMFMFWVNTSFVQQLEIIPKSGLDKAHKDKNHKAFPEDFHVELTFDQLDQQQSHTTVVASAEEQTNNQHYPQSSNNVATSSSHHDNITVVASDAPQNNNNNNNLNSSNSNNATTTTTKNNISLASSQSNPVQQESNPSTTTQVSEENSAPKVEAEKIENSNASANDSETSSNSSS

PTEN (PTEN-Halo) [2] = target: T2, PTEN (PTEN-Halo) (Dictyostelium discoideum, UniProt Q8T9S7); experiment: as above; conditions: 10 mol% PI(4,5)P2 in DOPC bilayer, pH 8.0, 300 mM NaCl, 21 °C; membrane dissociation of protein, two binding states; no affinity constant
T2 sequence (Q8T9S7 1-533): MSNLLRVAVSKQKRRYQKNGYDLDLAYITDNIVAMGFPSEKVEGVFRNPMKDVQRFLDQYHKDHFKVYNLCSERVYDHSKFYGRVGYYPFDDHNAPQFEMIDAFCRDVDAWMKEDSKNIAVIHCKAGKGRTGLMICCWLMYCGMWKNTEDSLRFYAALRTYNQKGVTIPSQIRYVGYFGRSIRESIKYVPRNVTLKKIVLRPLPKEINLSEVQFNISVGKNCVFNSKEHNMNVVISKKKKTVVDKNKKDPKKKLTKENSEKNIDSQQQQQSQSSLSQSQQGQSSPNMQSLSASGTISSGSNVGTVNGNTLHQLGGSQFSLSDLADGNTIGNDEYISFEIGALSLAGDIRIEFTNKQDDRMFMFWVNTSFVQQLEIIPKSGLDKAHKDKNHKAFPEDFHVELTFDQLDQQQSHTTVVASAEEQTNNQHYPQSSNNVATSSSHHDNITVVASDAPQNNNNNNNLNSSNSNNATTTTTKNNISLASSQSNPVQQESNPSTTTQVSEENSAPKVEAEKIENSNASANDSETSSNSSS

PTEN (PTEN-Halo) [3] = target: PTEN (PTEN-Halo) (Dictyostelium discoideum, UniProt Q8T9S7, K11A/K13A/R14A/R15A); experiment: phosphate release, BIOMOL Green, absorbance […] nm; format: biochemical; conditions: 5 nmol substrate in 50 μL, pH 8.0, 2 mM DTT, 21 °C, 2 h
Sequence of PTEN (PTEN-Halo) (Dictyostelium discoideum, UniProt Q8T9S7, K11A/K13A/R14A/R15A) (Q8T9S7 whole entry K11A/K13A/R14A/R15A): as the sequence (Q8T9S7 whole entry R47A) above, with K11A, K13A, R14A, R15A, A47R counted along it

PTEN (PTEN-Halo) [4] = target: T1, PTEN (PTEN-Halo); experiment: phosphate release, BIOMOL Green, absorbance […] nm; format: biochemical; conditions: 5 nmol substrate in 50 μL, pH 8.0, 2 mM DTT, 21 °C, 2 h

average dissociation rate constant k (PTEN (PTEN-Halo) [2]) | SMILES | average dissociation rate constant k (PTEN (PTEN-Halo) [1]) | phosphate release, BIOMOL Green, absorbance 620 nm (PTEN (PTEN-Halo) [3]) | phosphate release, BIOMOL Green, absorbance 620 nm (PTEN (PTEN-Halo) [4])
15.9 ± 2.8 s⁻¹ | CCCCCCCC/C=C\CCCCCCCC(=O)OC[C@H](COP(=O)(O)O[C@@H]1[C@H](O)[C@H](O)[C@@H](OP(=O)(O)O)[C@H](OP(=O)(O)O)[C@H]1O)OC(=O)CCCCCCC/C=C\CCCCCCCC [PI(4,5)P2, 1,2-dioleoyl-sn-glycero-3-phospho-(1′-myo-inositol-4′,5′-bisphosphate)] | both mutants exhibited faster dissociation than wild type |  | 
 | CCCCCCCC(=O)OC[C@H](COP(=O)(O)O[C@H]1[C@H](O)[C@@H](OP(=O)(O)O)[C@H](OP(=O)(O)O)[C@@H](OP(=O)(O)O)[C@H]1O)OC(=O)CCCCCCC [diC8-PI(3,4,5)P3] |  | Phosphatase activities of the mutants were comparable to each other | Phosphatase activities of the mutants were comparable to each other
